Assay results: patent publication US20100028465A1, “COMPOSITION FOR AMELIORATING CEREBRAL FUNCTION” (priority 2007, published 2010)
“Also recorded” adds a separate entry of the source.

Tests used:
PC-12 cell = test: Neurite extension / differentiation of PC-12 cell (differentiated cell ratio); assay type: cell-based; conditions: Example 6, non-addition 9.85
From the text: Regarding three fractions purified in Example 4, i.e. the fraction 1 (containing N-acylsphinganine), the fraction 2 (containing the hopanoids), and the fraction 3 (containing sphinganine and the amino lipids), the absence or presence of an action of extending and differentiating the neurite as a neurotrophic factor-like action was confirmed using PC-12 cell as a neural model cell.
Note that, in the same manner as in Example 4, 10 g of the alkali-stable lipid was loaded into a silica gel column equilibrated with chloroform. The column was washed with a solvent prepared by mixing chloroform and acetic acid at a volume ratio of 100:1, and eluted with a solvent having a ratio of chloroform to methanol of 2:1, whereby a fraction containing all of the constituent lipids of the fraction 1, fraction 2, and fraction 3 was prepared. The fraction was used as an alkali-stable lipid fraction not containing a fatty acid. Then, the presence or the absence of the action of extending and differentiating the neurite was confirmed similarly.
PC-12 cell (RCB0009) purchased from RIKEN BIORESOURCE CENTER was used. […]
After that, the resultant was cultured at 37° C. and under 5% CO2 for 48 hours. […] The total number of cells and the number of the differentiated cells in the viewing area were counted. […] Then, the average of 10 photographs in which the numbers were counted was calculated. […]

[1] = test system: intracerebral monoamines: norepinephrine (NE), 5-hydroxyindole acetic acid (5-HIAA); test: Monoamine content in cerebral cortex and hippocampus of memory disorder model rats (HPLC-ECD); assay type: in vivo, rat; conditions: 1 mg/kg/day oral, day 14
Protocol: Then, the increase and decrease in the concentrations of those intracerebral substances in rats of each group in Example 2 were measured.
That is, the brains of the memory disorder model rats prepared in Example 2 were extirpated and the contents of the monoamines in the cerebral cortex and hippocampus were measured.
On day 14 after administration, 5 rats each in 5 groups of the ibotenic acid-untreated group, non-administration control group, low dose ASL group, high dose ASL group, and positive control group in Example 2 were decapitated with a decapitation machine and the brains were taken out. The brains were put in an ice-cold physiological saline (Otsuka Pharmaceutical Co., Ltd.). Next, the brains were taken out and the cerebral cortex and hippocampus were then taken from the divided brains and the contents of the monoamines and a metabolite thereof were measured. The measurement method is shown in (a) to (c) below.
0.2 N […] solution was added to a brain sample in a container, and thereafter, an internal standard solution was added thereto, followed by homogenizing with a homogenizer. After being ice-cooled for 60 minutes or more, the resultant was centrifuged with a refrigerated centrifuge (about 4° C., 13,800 rpm, 5 minutes), and the supernatant was used as a measurement sample.
Mobile phase: a mixture containing 0.1 mol/Lacetic acid-citric acid buffer (pH 3.5), methanol, 100 mg/ml sodium 1-octane sulfonate solution, and 5 mg/ml EDTA·2·Na solution at a ratio of 830:170:1.85:1

[2] = test system: memory disorder model rats with defect in the cholinergic neuron (ibotenic acid); test: Morris water maze test (acquisition and probe trials) in memory disorder model rats; assay type: in vivo, rat

Row | Structure (SMILES) | Differentiated cell ratio (%) of PC-12 cell 48 hours after addition (PC-12 cell; addition concentration 5 μg/ml) [%] | Differentiated cell ratio (%) of PC-12 cell 48 hours after addition (PC-12 cell; addition concentration 25 μg/ml) [%] | 5-HIAA content in hippocampus [1] | 5-HIAA content in cerebral cortex ([1]; hydrochloride) | NE content in cerebral cortex ([1]; hydrochloride) | NE content in hippocampus ([1]; hydrochloride) | escape latency in acquisition trials vs non-administration control group ([2]; 1 mg per 1 kg rat weight per day, oral, trials day 10 to 13) | escape latency in the seventh trial vs non-administration control group (Steel's test, p<0.05) ([2]; 1 mg/kg/day oral) | retention time in the fourth quadrant in probe trial ([2]; 1 mg/kg/day oral, day 14) | number of crossings of platform location in probe trial vs non-administration control group ([2]; 1 mg/kg/day oral, day 14, p<0.05 Steel's test)
1 | CCCCCCCCCCCCCCC[C@@H](O)[C@H](CO)NC(=O)C(O)CCCCCCCCCCCCCC (stereo partly shown) [N-2′-hydroxypalmitoyl-sphinganine] | 19.49 | 17.44 | – | – | – | – | – | – | – | –
2 | Cl.Nc1c2c(nc3ccccc13)CCCC2 [positive control, 9-amino-1,2,3,4-tetrahydroacridine hydrochloride] | – | – | increasing tendencies | increasing tendencies; also recorded: recovered to the level close to those of the ibotenic acid-untreated group | increasing tendencies; also recorded: recovered to the level close to those of the ibotenic acid-untreated group | increasing tendencies; also recorded: recovered to the level close to that of the ibotenic acid-untreated group | tended to be short | no significant difference | did not tend to be long | significant increase
